The test system of this test is BDF1 mice, Adenocarcinoma 755 s.c., tumor weight T/C. Put plainly: NCI In Vivo Anticancer Drug Screen. Data for tumor model Adenocarcinoma 755 (subcutaneous) in B6D2F1 (BDF1) mice. Particulars: endpoint: mean tumor weight, higher = larger tumour. The procedure, abridged: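 Tumor-bearing mice receive test compound while controls get vehicle alone. Antitumor effect is scored from survival or tumor dimensions as a T/C quotient.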

[1] abbreviates: dose: 25.0 mg/kg/injection, schedule: Q01DX011 (ip), vehicle: carboxymethylcellulose (CMC).

The record followed here is PubChem BioAssay AID180 (DTP/NCI, 2004).

Where “and” joins values, the source holds several entries; their conditions need not be identical. Equal entries are not always repeated.

Consider `C=CCOP(=O)(N1CC1CC)N1CC1CC` (stereo not drawn), for which the T/C (dose: 17.0 mg/kg/injection, schedule: Q01DX011 (ip), vehicle: saline) was 69 % of control; the T/C (dose: 33.0 mg/kg/injection, schedule: Q01DX011 (ip), vehicle: saline) was 50 % of control; the T/C (dose: 66.0 mg/kg/injection, schedule: Q01DX011 (ip), vehicle: saline) is 18 % of control.

On to `C[C@]12CCC(=O)C=C1CC[C@@H]1[C@@H]2[C@@H](O)C[C@@]2(C)[C@H]1CC[C@]2(O)C(=O)COC(=O)c1ccc([N+](=O)[O-])cc1Cl`, for which the T/C reads like this: (dose: 25.0 mg/kg/injection, schedule: Q01DX011 (sc), vehicle: water) 43 % of control; (dose: 50.0 mg/kg/injection, schedule: Q01DX011 (sc), vehicle: water) 17 % of control; (dose: 100.0 mg/kg/injection, schedule: Q01DX011 (sc), vehicle: water) 23 % of control; (dose: 200.0 mg/kg/injection, schedule: Q01DX011 (sc), vehicle: water) 4 % of control.

With `O=c1[nH]cnc2c1ncn2C1CCCC1`, the T/C by setting is: (dose: 18.1 mg/kg/injection, schedule: Q01DX011 (ip), vehicle: carboxymethylcellulose (CMC)) 81 % of control; (dose: 18.12 mg/kg/injection, schedule: Q01DX011 (ip), vehicle: carboxymethylcellulose (CMC)) 124 % of control; (dose: 36.2 mg/kg/injection, schedule: Q01DX011 (ip), vehicle: carboxymethylcellulose (CMC)) 78 % of control; (dose: 36.25 mg/kg/injection, schedule: Q01DX011 (ip), vehicle: carboxymethylcellulose (CMC)) 90 % of control; (dose: 56.0 mg/kg/injection, schedule: Q01DX001 (ip), vehicle: carboxymethylcellulose (CMC)) 70 % of control; (dose: 72.5 mg/kg/injection, schedule: Q01DX011 (ip), vehicle: carboxymethylcellulose (CMC)) 100 % of control and 87 % of control. Also, the T/C is, setting by setting: (dose: 112.0 mg/kg/injection, schedule: Q01DX001 (ip), vehicle: carboxymethylcellulose (CMC)) 70 % of control; (dose: 145.0 mg/kg/injection, schedule: Q01DX011 (ip), vehicle: carboxymethylcellulose (CMC)) 75 % of control and 85 % of control; (dose: 225.0 mg/kg/injection, schedule: Q01DX001 (ip), vehicle: carboxymethylcellulose (CMC)) 37 % of control.

Consider `NC(=O)c1n[nH]nc1N=Nc1c(O)ccc2ccccc12`, for which the T/C (dose: 16.0 mg/kg/injection, schedule: Q01DX011 (ip), vehicle: carboxymethylcellulose (CMC)) is 85 % of control; the T/C (dose: 31.0 mg/kg/injection, schedule: Q01DX011 (ip), vehicle: carboxymethylcellulose (CMC)) was 120 % of control; the T/C (dose: 62.0 mg/kg/injection, schedule: Q01DX011 (ip), vehicle: carboxymethylcellulose (CMC)) is 204 % of control.

On to `CC(C)N(C(C)C)C(C)CCNc1c2ccccc2nc2cc(Cl)ccc12` (stereo not drawn), for which the T/C reads like this: (dose: 3.0 mg/kg/injection, schedule: Q01DX011 (ip), vehicle: methylcellulose (MC)) 64 % of control; (dose: 6.0 mg/kg/injection, schedule: Q01DX011 (ip), vehicle: methylcellulose (MC)) 79 % of control; (dose: 12.0 mg/kg/injection, schedule: Q01DX011 (ip), vehicle: methylcellulose (MC)) 72 % of control.

Turning to `CC(COS(C)(=O)=O)C(=O)N1CCN(C(=O)C(C)COS(C)(=O)=O)CC1` (stereo not drawn), the T/C (dose: 28.0 mg/kg/injection, schedule: Q01DX011 (ip), vehicle: methylcellulose (MC)) is 69 % of control; the T/C (dose: 57.0 mg/kg/injection, schedule: Q01DX011 (ip), vehicle: methylcellulose (MC)) was 74 % of control; the T/C (dose: 113.0 mg/kg/injection, schedule: Q01DX011 (ip), vehicle: methylcellulose (MC)) was 73 % of control; the T/C (dose: 225.0 mg/kg/injection, schedule: Q01DX011 (ip), vehicle: methylcellulose (MC)) is 69 % of control.

Turning to `Cc1ccc(Nc2nc(N)nc(C)c2Br)cc1`, the T/C (dose: 15.0 mg/kg/injection, schedule: Q01DX011 (ip), vehicle: methylcellulose (MC)) was 98 % of control; the T/C (dose: 31.0 mg/kg/injection, schedule: Q01DX011 (ip), vehicle: methylcellulose (MC)) was 95 % of control; the T/C (dose: 62.0 mg/kg/injection, schedule: Q01DX011 (ip), vehicle: methylcellulose (MC)) was 82 % of control; the T/C (dose: 125.0 mg/kg/injection, schedule: Q01DX011 (ip), vehicle: methylcellulose (MC)) was 70 % of control; the T/C (dose: 250.0 mg/kg/injection, schedule: Q01DX011 (ip), vehicle: methylcellulose (MC)) was 83 % of control.

Consider `CC(=O)Nc1c(Cl)cc2c(c1Cl)Cc1cc([N+](=O)[O-])ccc1-2`, for which the T/C reads like this: (dose: 0.8 mg/kg/injection, schedule: Q01DX011 (ip), vehicle: carboxymethylcellulose (CMC)) 32 % of control; (dose: 1.6 mg/kg/injection, schedule: Q01DX011 (ip), vehicle: carboxymethylcellulose (CMC)) 47 % of control; (dose: 3.0 mg/kg/injection, schedule: Q01DX011 (ip), vehicle: other) 61 % of control; (dose: 3.12 mg/kg/injection, schedule: Q01DX011 (ip), vehicle: carboxymethylcellulose (CMC)) 25 % of control; (dose: 6.0 mg/kg/injection, schedule: Q01DX011 (ip), vehicle: other) 87 % of control; (dose: 6.25 mg/kg/injection, schedule: Q01DX011 (ip), vehicle: carboxymethylcellulose (CMC)) 31 % of control and 33 % of control. Further, the T/C by setting is: (dose: 6.25 mg/kg/injection, schedule: Q01DX011 (ip), vehicle: other) 59 % of control; (dose: 12.5 mg/kg/injection, schedule: Q01DX011 (ip), vehicle: carboxymethylcellulose (CMC)) 15 % of control; (dose: 12.5 mg/kg/injection, schedule: Q01DX011 (ip), vehicle: other) 22 % of control and 35 % of control; under setting [1], 9 % of control; (dose: 25.0 mg/kg/injection, schedule: Q01DX011 (ip), vehicle: other) 24 % of control and 45 % of control; (dose: 50.0 mg/kg/injection, schedule: Q01DX011 (ip), vehicle: carboxymethylcellulose (CMC)) 9 % of control. Also, the T/C (dose: 50.0 mg/kg/injection, schedule: Q01DX011 (ip), vehicle: other) is 31 % of control and 35 % of control; the T/C (dose: 100.0 mg/kg/injection, schedule: Q01DX011 (ip), vehicle: carboxymethylcellulose (CMC)) was 8 % of control; the T/C (dose: 100.0 mg/kg/injection, schedule: Q01DX011 (ip), vehicle: other) was 30 % of control; the T/C (dose: 200.0 mg/kg/injection, schedule: Q01DX011 (ip), vehicle: carboxymethylcellulose (CMC)) was 6 % of control and 25 % of control; the T/C (dose: 200.0 mg/kg/injection, schedule: Q01DX011 (ip), vehicle: other) was 26 % of control; the T/C (dose: 300.0 mg/kg/injection, schedule: Q01DX011 (ip), vehicle: carboxymethylcellulose (CMC)) was 6 % of control. For the same compound, the T/C (dose: 400.0 mg/kg/injection, schedule: Q01DX011 (ip), vehicle: other) was 20 % of control.

As for `CCC(=O)O[C@H]1CC[C@H]2[C@@H]3CC[C@H]4CC(=O)[C@H](C)C[C@]4(C)[C@H]3CC[C@]12C`, the T/C is 109 % of control and 115 % of control (dose: 44.13 mg/kg/injection, schedule: Q01DX011 (sc), vehicle: steriod suspending solution); 156 % of control (dose: 88.25 mg/kg/injection, schedule: Q01DX011 (sc), vehicle: steriod suspending solution); 101 % of control (dose: 125.0 mg/kg/injection, schedule: Q01DX011 (sc), vehicle: steriod suspending solution); 154 % of control (dose: 353.0 mg/kg/injection, schedule: Q01DX011 (sc), vehicle: steriod suspending solution); 176 % of control (dose: 500.0 mg/kg/injection, schedule: Q01DX011 (sc), vehicle: steriod suspending solution); 124 % of control (dose: 1000.0 mg/kg/injection, schedule: Q01DX011 (sc), vehicle: steriod suspending solution).

As to `CC(=O)OCC1OC(n2cnc3c(=O)[nH]c(=O)[nH]c32)C(OC(C)=O)C1OC(C)=O` (stereo not drawn), the T/C by setting is: (dose: 30.0 mg/kg/injection, schedule: Q01DX011 (ip), vehicle: saline) 101 % of control; (dose: 60.0 mg/kg/injection, schedule: Q01DX011 (ip), vehicle: saline) 103 % of control; (dose: 120.0 mg/kg/injection, schedule: Q01DX011 (ip), vehicle: saline) 86 % of control; (dose: 240.0 mg/kg/injection, schedule: Q01DX011 (ip), vehicle: saline) 112 % of control.

Regarding `Nc1nc(C(F)(F)F)c2ncn(Cc3ccccc3)c2n1`, the T/C reads like this: (dose: 60.0 mg/kg/injection, schedule: Q01DX011 (ip), vehicle: carboxymethylcellulose (CMC)) 92 % of control; (dose: 120.0 mg/kg/injection, schedule: Q01DX011 (ip), vehicle: carboxymethylcellulose (CMC)) 123 % of control.

As for `CN(C)c1ccc(/C=C/c2ccnc3ccccc23)cc1`, the T/C is 117 % of control (dose: 4.0 mg/kg/injection, schedule: Q01DX011 (ip), vehicle: water); 105 % of control (dose: 8.0 mg/kg/injection, schedule: Q01DX011 (ip), vehicle: water); 72 % of control (dose: 16.0 mg/kg/injection, schedule: Q01DX011 (ip), vehicle: water).

In the case of `Cn1cnc(N)c(NC=O)c1=O`, the T/C is 98 % of control under setting [1]; 113 % of control (dose: 75.0 mg/kg/injection, schedule: Q01DX011 (ip), vehicle: carboxymethylcellulose (CMC)); 115 % of control (dose: 225.0 mg/kg/injection, schedule: Q01DX011 (ip), vehicle: carboxymethylcellulose (CMC)).

Broadly, the T/C is the ratio of treated to control.
